Reference: US20240102075A1, “METHOD FOR QUANTIFYING 25-HYDROXYVITAMIN D, HYDROXYLASE, QUANTIFICATION COMPOSITION, QUANTIFICATION KIT, ELECTRODE, SENSOR CHIP, AND SENSOR” (KIKKOMAN CORPORATION, priority 2021, published 2024)

Assays:
[1] = cited from earlier work
[2] = hydroxylase activity using ferredoxin as a mediator, absorbance at 340 nm; format: biochemical; conditions: 0.5 mM 25-hydroxyvitamin D3, ferredoxin/ferredoxin reductase/NADPH, 90 seconds, 30° C.
Procedure: VDH obtained by the above-described method and ferredoxin were used to measure hydroxylase activity using 25-hydroxyvitamin D3, which is a vitamin D derivative, as a substrate.
4.19 mg of 25-hydroxyvitamin D3 was dissolved in 1 ml of DMSO (final concentration: 10 mM). Since 25-hydroxyvitamin D3 is lipid-soluble, it was diluted to 1 mM (concentration at the time of measurement: 0.5 mM) using 4.0% (v/v) TritonX-100 solution to maintain solubility.
After incubating 500 μl of the measurement reagent consisting of the composition of Table 2 at 30° C. for 3 minutes, 500 μl of the substrate reagent was added, and the absorbance (Abs) at the wavelength 340 nm was measured over time for 90 seconds using a spectrophotometer (U-3900, manufactured by Hitachi High-Tech Science Corporation). […] Therefore, it was shown that 25-hydroxyvitamin D can be quantified by hydroxylase activity of VDH using ferredoxin as a mediator.

Molecule: 1,25-dihydroxyvitamin D
- half-life in the blood ([1]; in blood): about 15 hours

Molecule: 25-hydroxyvitamin D
- blood half-life ([1]; in vivo): 2-3 weeks

B1: VDH: Vitamin D hydroxylase derived from Pseudonocardia autotrophica NBRC12743 strain, SEQ ID NO: 1, expressed in E. coli (protein, listed as Pseudonocardia autotrophica)
chain: MALTTTGTEQHDLFSGTFWQNPHPAYAALRAEDPVRKLALPDGPVWLLTRYADVREAFVDPRLSKDWRHTLPEDQRADMPATPTPMMILMDPPDHTRLRKLVGRSFTVRRMNELEPRITEIADGLLAGLPTDGPVDLMREYAFQIPVQVICELLGVPAEDRDDFSAWSSVLVDDSPADDKNAAMGKLHGYLSDLLERKRTEPDDALLSSLLAVSDEDGDRLSQEELVAMAMLLLIAGHETTVNLIGNGVLALLTHPDQRKLLAEDPSLISSAVEEFLRFDSPVSQAPIRFTAEDVTYSGVTIPAGEMVMLGLAAANRDADWMPEPDRLDITRDASGGVFFGHGIHFCLGAQLARLEGRVAIGRLFADRPELALAVGLDELVYRESTLVRGLSRMPVTMGPRSA
- change in absorbance (A340) compared to the blank [2]: significant change in absorbance
